The source of these data is patent US20100210568A1, “T[…] HORMONE FOR […] APPLICATIONS” (priority 2007, published 2010).

Series [1] deals with HIV-1IIIB. Put plainly: HIV-1 antiviral assay (CPE reduction, MTS) in CEM-SS cells. It is filed as cell-based. Particulars: for antiviral activity of positive control compounds (in words): HIV-1 assay validity; for % CPE reduction in HIV-1 infected CEM-SS cells: test peptide 10 micrograms per ml, 6 days post-infection, MTS.
Series [2] concerns CEM-SS cells. Put plainly: Cytotoxicity (MTS cell viability) in the HIV-1 assay. Particulars: test peptide 10 micrograms per ml, MTS.
Series [3] concerns HepG2-2.2.15 cells. In words: Cytotoxicity (dye uptake cell viability) in the HBV assay. It is filed as cell-based. The conditions noted are these: % cell control.
Series [4] concerns MRC-5 cells. Put plainly: Cytotoxicity testing in MRC-5 cells (CellTiter 96). In kind it is cell-based, human. Particulars: 6 days incubation. As to the method: (§1) Cells were split twic a week 1:2.
(§2) For cytotxicity testing, MRC-5 cells were seeded at 2,500 cells/well in 96 well plates using growth medium. […] The following day, peptide was added and tested in duplicates. After a 6 days incubation period, cell viability was measured using CellTiter 96 Solution (Promega). Plates were incubated for additional 4 hours at 37° C.

Series [5] relates to HCMV strain AD169. Put plainly: HCMV plaque reduction assay in MRC-5 cells. It is filed as cell-based.
Description: as §1
Ganciclovir was used as positive control.

Series [6] deals with cyclic AMP generation in human peripheral blood mononuclear cells (PBMC). Put plainly: cAMP induction assay (ELISA). It is filed as cell-based. Particulars: 10 min at 37° C.; forskolin 50 micrograms per ml as positive control. The procedure: The cAMP kit was used as an immunoassay for the quantitative determination of cyclic AMP generation in human peripheral blood mononuclear cells (PBMC). PBMC were placed in 96-well microtitier plates (50 microliters of cells at 4×10^6/ml) and 50 microliters of medium alone (background control), forskolin (cAMP positive control; 50 micrograms per ml), or test peptide were added. Plates were mixed and incubated for 10 min at 37° C. and the cells were lysed by the addition of 50 microliters of 3% perchloric acid. NaOH was added to neutralize the samples. Plates were centrifuged for 15 min at 2500 rpm and the supernatants removed. The supernatants (diluted 2-fold in assay buffer) were then assayed for the levels of cAMP by ELISA.

Series [7] concerns Human Peripheral Blood Mononuclear Cells (PBMC), B cell proliferation. Put plainly: B cell proliferation assay (SAC plus Interleukin-2, 3H-thymidine). In kind it is cell-based. The conditions noted are these: peptide 10 micrograms per ml; 3 days plus 12 hours 3H-thymidine.
Series [8] relates to Interleukin-2 (IL-2), spleen cells. In words: Th1/Th2 cytokine profiling assay: IL-2. In kind it is cell-based, Balb/c mice. Particulars: peptide 10 micrograms per ml; Ovalbumin restimulation 10 micrograms/ml; 72 hours.
For series [9], the system named is Streptococcus pneumoniae. In words: Streptococcus pneumoniae assay. The conditions noted are these: peptide 10 micrograms per ml, visual reading of growth. It is filed as cell-based.
The subject of series [10] is hepatitis B virus (HBV) ayw strain in HepG2-2.2.15 cells. In words: HBV experimental assay system (secreted HBV DNA, TaqMan PCR). It is filed as cell-based. Particulars: test peptide 10 micrograms per ml; six days; HBV DNA in supernatant.
Series [11] is described as follows: Cytotoxicity testing in MRC-5 cells (CellTiter 96). It is filed as cell-based, human. Particulars: human, MRC-5 cells (embryonal lung fibroblasts), 6 days incubation, read-out: % Cell Viability. As to the method: as §1, §2
In series [12] the test system is A549 cells. Put plainly: Cell cycle assay (propidium iodide, FACS). In kind it is cell-based, human. The conditions noted are these: peptide 10 micrograms per ml, 24 hours.
The test system of series [13] is Interleukin-5 (IL-5), spleen cells. Put plainly: Th1/Th2 cytokine profiling assay: IL-5. It is filed as cell-based, Balb/c mice. The conditions noted are these: peptide 10 micrograms per ml; Ovalbumin restimulation 10 micrograms/ml; 72 hours.
In series [14] the test system is HUVEC. Put plainly: Endothelial tube formation assay. It is filed as cell-based, human. The conditions noted are these: peptide 10 micrograms per ml; 20 hours. An excerpt:
Positive control was vehicle only. […] Raw data were expressed as average tubule lenghs in pixels±standard deviation.

The test system of series [15] is Human Peripheral Blood Mononuclear Cells (PBMC), T cell proliferation. Put plainly: T cell proliferation assay (PHA, 3H-thymidine). It is filed as cell-based. Particulars: peptide 10 micrograms per ml; 3 days plus 12 hours 3H-thymidine.
The nature of series [16]: Cytotoxicity (MTS cell viability) in the HIV-1 assay. The conditions noted are these: human, CEM-SS cells.
For series [17], the system named is A549 cells. Put plainly: Apoptosis induction assay (Annexin-5). The conditions noted are these: peptide 10 micrograms per ml, 24 hours. In kind it is cell-based, human.
For series [18], the system named is TNF alpha production in PBMC-derived macrophages. Put plainly: TNF alpha production assay (LPS-stimulated macrophages, ELISA). The conditions noted are these: peptide 10 micrograms per ml, 30 min; lipopolysaccharide 200 ng/ml; overnight. In kind it is cell-based, human. The text has this:
Not stimulated macrophages served as negative background control.

In series [19] the test system is Pseudomonas aeruginosa. In words: Pseudomonas aeruginosa assay. It is filed as cell-based. Particulars: peptide 10 micrograms per ml, visual reading of growth.
Series [20] relates to Interferon-γ (IFN-γ), spleen cells. In words: Th1/Th2 cytokine profiling assay: IFN-γ. The conditions noted are these: peptide 10 micrograms per ml; Ovalbumin restimulation 10 micrograms/ml; 72 hours. It is filed as cell-based, Balb/c mice.
In series [21] the test system is A549 cells. Put plainly: Apoptosis prevention assay (C2 ceramide, Annexin-5). It is filed as cell-based, human. Particulars: peptide 10 micrograms per ml; 30 min pretreatment, then C2 ceramide.
Series [22] relates to RAW 264.7 cells. Put plainly: Phagocytosis assay (Fluorescein-labeled Escherichia coli, flow cytometry). In kind it is cell-based, mouse. The conditions noted are these: peptide 10 micrograms per ml; 30 min preincubation, 60 min ingestion. As to the method:
RAW 264.7 (Mouse leukaemic monocyte macrophage cell line) cells were obtained from ATCC and grown in RPMI 1640 medium containing 10% FBS. […] After the cells were incubated for additional 60 min at 37° C. and allowed to ingest the Fluorescein-labeled Escherichia coli bacteria, cells were fixed with 1% paraformaldehyde. The samples were then analyzed by flow cytometry to determine the amount of phagocytosis as a function of brightness (the greater the phagocytic activity, the more fluorescence in the macrophage population). Data are reported as % positive and the mean fluorescence intensity (MFI) of positively stained cells.

The nature of series [23]: Cytotoxicity (dye uptake cell viability) in the HBV assay. In kind it is cell-based. The conditions noted are these: human, HepG2-2.2.15 cells, % cell control.
Series [24] has as its system Interleukin-4 (IL-4), spleen cells. Put plainly: Th1/Th2 cytokine profiling assay: IL-4. It is filed as cell-based, Balb/c mice. The conditions noted are these: peptide 10 micrograms per ml; Ovalbumin restimulation 10 micrograms/ml; 72 hours.
The subject of series [25] is MRSA. Particulars: peptide 10 micrograms per ml, visual reading of growth.
The test system of series [26] is Primary Human endothelial cells (HUVEC). In words: Endothelial cell migration assay. It is filed as cell-based. The conditions noted are these: peptide 10 micrograms per ml; 22 hours.
In series [27] the test system is Tumor Necrosis Factor-α (TNF-α), spleen cells. In words: Th1/Th2 cytokine profiling assay: TNF-α. In kind it is cell-based, Balb/c mice. Particulars: peptide 10 micrograms per ml; Ovalbumin restimulation 10 micrograms/ml; 72 hours.

With `Cc1cn([C@H]2C[C@H](N=[N+]=[N-])[C@@H](CO)O2)c(=O)[nH]c1=O` [AZT], in series [1], the “antiviral activity of positive control compounds (in words)” value is listed as “expected levels of antiviral activity” and the “% CPE reduction in HIV-1 infected CEM-SS cells” value was determined as 99%. Also, the “% Cell viability” value in [2] was found to be 97%.

For `Nc1ccn([C@@H]2CS[C@H](CO)O2)c(=O)n1` [Compound 3TC, Lamivudine, reference compound], the “% Cell viability” value in series [3] came to 95.8%.

Turning to `Nc1nc(O)c2ncn(COC(CO)CO)c2n1` [Ganciclovir, reference compound], the “% Cell viability” value in [4] came to 100%. Further, in series [5] (HCMV assay validity), the “antiviral activity of positive control compound (in words)” value was “expected levels of antiviral activity”.

`CC(C)(C)NC(=O)[C@@H]1CN(Cc2cccnc2)CCN1C[C@@H](O)C[C@@H](Cc1ccccc1)C(=O)N[C@H]1c2ccccc2C[C@H]1O` [Indinavir]: the “antiviral activity of positive control compounds (in words)” value in series [1] is recorded as “expected levels of antiviral activity”. The “% Cell viability” value in series [2] came to 93%.

With `NC(=O)[C@@H]1CCCN1C(=O)[C@H](Cc1cnc[nH]1)NC(=O)[C@@H]1CCC(=O)N1` [TRH, Pyr-His-Pro-NH2], in series [6], the “% of Forskolin (positive control) induced cAMP formation” value is 0.0%. The “% of SAC/IL2 induced control” value in series [7] came to 106.0%. In addition, in series [8], the “IL-2 spleen cells (% of control)” value is given as 0.0 % of control. In addition, the “% inhibition” value in [9] is listed as 0.0%. In addition, the “% CPE reduction in HIV-1 infected CEM-SS cells” value in [1] is recorded as 0.0%. Moreover, in series [10], the “% inhibition of HBV replication in HEP G2 cells” value was 3.3%. Moreover, the viability at 144 h in [11] was found to be 100%. For the same compound, in series [12], the “Cell cycle analysis G0/G1” value was 58.1, the “Cell cycle analysis G2/M” value is given as 10.7 and the “Cell cycle analysis S” value came to 31.3. Further, the “IL-5 spleen cells; TH2 response (% of control)” value in series [13] is listed as 67.5 % of control. In addition, in series [14], the “% inhibition of tube formation” value is on record as 7%. In addition, in series [15], the “% of PHA induced Control” value amounted to 98.6%. The viability at 10 micrograms per ml in [16] is 94.6%. The “% of induction” value in series [17] amounted to 0.7%. Further, the “% of LPS induction” value in series [18] stood at 106.7%. In series [19], the “% inhibition” value is reported as 0.0%. Further, in [20], the “IFNγ spleen cells; TH1 response (% of control)” value is on record as 102.0 % of control. The “% prevention of ceramide induced apoptosis” value in series [21] stood at 17.2%. In addition, the “% of control phagocytosis” value in [22] is on record as 131.4%. In series [23], the viability at 144 h, 10 micrograms per ml came out at 87.4%. Also, the “IL-4 spleen cells; TH2 response (% of control)” value in series [24] is recorded as 106.2 % of control. For the same compound, in [5] (peptide 10 micrograms per ml, 7-10 days, MRC-5 cells), the “% plaque reduction” value amounted to 0.0%. Also, the “% inhibition” value in series [25] is 0.0%. Moreover, the “% inhibition of migration” value in [26] was −12%. In addition, in [27], the “TNF-a spleen cells; TH1 response (% of control)” value is 110.7 % of control.
